In assay [1] the test system is sMAC signalling (sestrin 1, 2 and 3 expression, AMPK and MAPK phosphorylation). Put plainly: Immunoblot of sMAC signalling in CD4+ T cells treated with DOS compounds (heat-map). It is filed as cell-based, human. The protocol:
CD4+ T cells were isolated from PBMCs from healthy donors, treated with DOS compounds for 4 hours and harvested for immunoblot analysis. The heat-map of Sestrin 1, Sestrin 2, Sestrin 3, p-mTOR1, p-JNK, p-AMPK, p-ERK1/2, and p-p38, represents the mean of three to nine experiments. Histone 3 was used as a control.
• 1. CD4+ cells were separated from PBMC using appropriate microbeads kit (Miltenyi) • 2. Cells were resuspended in whole RPMI medium and plated in the 24-multiwell plate • 3. Then activated for 4 hrs with DOS compounds • 4. Cells were then harvested, washed with PBS and resuspended in lysis buffer (RIPA with […]) • 5. The cell-lysis mix was incubated for 20 mins on ice • 6. Samples were centrifuged for 20 mins at the max speed • 7. The supernatant was collected and Lemmli buffer+β-Mercaptoethanol was added • 8. Samples were then boiled for 5 mins at 95° C. • 9. Samples were loaded on the polyacrylamide gel and left to run in TRIS-Glycine-SDS running buffer • 10. Once the run was completed the proteins were transferred from the gel to the nitrocellulose membrane by using the Trans-Blot machine (Biorad) • 11. Membrane was washed with 0.1% Tween-TBS buffer and blocked in 5% non-fat milk for 1 hr • 12. Followed incubation with the primary antibody o.n. • 13. The day after, the membrane was washed with 0.1% Tween-TBS buffer for three times for at least 30 mins each • 14. Secondary antibody was then added for 1h • 15. The membrane was the washed with 0.1% Tween-TBS buffer for three times for at least 30 mins each • 16. The signal was developed using ECL solution
This was shown by downregulation of sestrin 1, 2 and 3 expression, and AMPK and MAPK phosphorylation.
A general note: A western blot detects proteins with antibodies after separation by electrophoresis.

Assay [2] concerns H1N1 PR8/54. It is filed as in vivo, mice. Particulars: old mice, vaccination with DOS, H1N1 PR8/54.
Assay [3] deals with Breast cancer cell line (MCF-7). The assay is described as follows: Cancer cell death by FACS live-dead staining. It is filed as cell-based. Particulars: 20 uM, 48 hours. On the procedure: (§1) (Left) Immortalized paediatric neuroblastoma cell line (sh-sy5y) was treated at different concentrations of DOS46L and DOS144D (from 1 uM to 20 uM) for 48 hours, then analysed by FACS with live-dead staining. (Right) Breast cancer cell line (MCF-7) was treated at the fixed concentration of DOS46L and DOS144D (20 uM) for 48 hours, then analysed by FACS with live-dead dye staining. UN depicts untreated controls. Results of triplicate cultures are shown.
In general terms: In flow cytometry, cells or beads pass a laser one at a time.

The subject of assay [4] is paediatric neuroblastoma cell line (sh-sy5y). Put plainly: Cancer cell death by FACS live-dead staining. Type of assay: cell-based. Particulars: 1 uM to 20 uM, 48 hours. On the procedure: as §1
For assay [5], the target named is T1, sMAC (sestrin 1, 2, and 3, AMPK and MAPKs) (Homo sapiens, UniProt P58004+Q9Y6P5).
T1 construct: endogenous in cells; host or cells: primary CD4+ T cells from PBMCs of healthy donors
T1 sequence (Q9Y6P5 1-492): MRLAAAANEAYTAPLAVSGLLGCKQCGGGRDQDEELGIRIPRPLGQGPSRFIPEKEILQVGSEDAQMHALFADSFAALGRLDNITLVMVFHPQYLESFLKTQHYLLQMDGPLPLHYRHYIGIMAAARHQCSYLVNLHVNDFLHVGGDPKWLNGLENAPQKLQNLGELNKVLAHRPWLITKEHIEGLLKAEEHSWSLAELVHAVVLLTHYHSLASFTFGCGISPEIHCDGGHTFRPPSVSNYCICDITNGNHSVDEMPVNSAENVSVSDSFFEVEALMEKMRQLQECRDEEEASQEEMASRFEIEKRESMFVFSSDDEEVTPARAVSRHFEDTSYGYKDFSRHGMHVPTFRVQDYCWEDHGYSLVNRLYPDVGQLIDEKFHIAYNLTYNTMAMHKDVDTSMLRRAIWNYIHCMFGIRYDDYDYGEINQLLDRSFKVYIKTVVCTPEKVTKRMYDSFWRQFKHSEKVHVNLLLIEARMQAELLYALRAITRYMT
T1 sequence (P58004 1-480): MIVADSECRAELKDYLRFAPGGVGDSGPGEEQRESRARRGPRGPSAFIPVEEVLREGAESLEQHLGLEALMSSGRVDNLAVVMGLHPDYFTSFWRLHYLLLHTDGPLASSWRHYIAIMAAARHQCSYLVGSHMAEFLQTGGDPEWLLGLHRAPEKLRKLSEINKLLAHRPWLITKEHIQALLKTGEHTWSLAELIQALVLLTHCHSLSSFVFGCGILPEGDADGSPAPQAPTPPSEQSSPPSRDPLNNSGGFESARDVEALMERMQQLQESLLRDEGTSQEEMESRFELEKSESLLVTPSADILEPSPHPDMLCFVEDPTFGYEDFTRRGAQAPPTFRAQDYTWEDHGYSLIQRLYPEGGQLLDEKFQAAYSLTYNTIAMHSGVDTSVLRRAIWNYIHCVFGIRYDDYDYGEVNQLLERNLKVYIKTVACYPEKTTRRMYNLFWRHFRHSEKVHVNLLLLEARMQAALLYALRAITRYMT
T1 sequence (P58005 1-492 partner): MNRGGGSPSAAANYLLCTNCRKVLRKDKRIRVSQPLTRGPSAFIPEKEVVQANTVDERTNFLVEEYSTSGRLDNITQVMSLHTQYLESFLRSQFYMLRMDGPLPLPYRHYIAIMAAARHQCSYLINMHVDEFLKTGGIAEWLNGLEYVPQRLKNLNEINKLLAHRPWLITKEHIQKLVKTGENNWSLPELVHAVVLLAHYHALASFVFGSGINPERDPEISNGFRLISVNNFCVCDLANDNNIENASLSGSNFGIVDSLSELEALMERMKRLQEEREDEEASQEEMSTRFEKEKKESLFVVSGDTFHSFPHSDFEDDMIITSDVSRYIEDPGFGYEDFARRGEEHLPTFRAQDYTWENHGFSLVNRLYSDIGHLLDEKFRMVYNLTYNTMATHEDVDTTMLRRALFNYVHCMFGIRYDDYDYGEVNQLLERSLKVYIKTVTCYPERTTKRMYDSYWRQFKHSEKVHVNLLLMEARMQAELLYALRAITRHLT
Put plainly: Pull-down of biotinylated DOS46L from CD4+ T cells. Type of assay: binding. As to conditions: 10 uM, 4 hours. On the procedure: (§2) (A) Biotinylated DOS46L was mixed with flag recombinant Sestrins, immunoprecipitated with streptavidin and immunoblotted with flag Sestrins. […] Representative images from three experiments are shown. […] (D) DOS46L binds to the entire sMAC complex in CD4 T cells. CD4+ T cells were isolated from PBMCs from healthy donors and treated with biotinylated DOS46L compound (10 uM) for 4 hours. Cells were harvested for immunoprecipitation analysis.
(§3) • 1. Cell pellet was lysed with 100 μL of denaturing lysis buffer • 2. Then mixed well by vortexing vigorously for 2-3 sec at maximum speed. • 3. Samples were then boiled at 95° C. for 5 min. • 4. Samples were then diluted 900 μl of non-denaturing lysis buffer and mixed gently. • 5. Cell lysates were then passed through a needle attached to a 1 ml syringe for 5-10 times or were sonicated. • 6. Incubated then on ice for 5 min • 7. Samples were pre-cleaned by spinning at the max speed at 4° C. for 20 min. • 8. Supernatants were collected in a new tube • 9. 7 ul (5 μg) of SESN2 (abcam) primary anti-body was added directly to the supernatant and incubated on the rota o.n. at 4° C. • 10. 200 ul of protein A/G beads were washed 4-5 times in IP buffer and blocked then o.n. in IP buffer with BSA and left on the rota at 4° C. • 11. The day after, 50 ul of protein A/G beads were added to the sample and incubated for 3 hrs on the rota at 4° C. • 12. […]

Assay [6] has as its target T2, GATOR complex (WDR59 and mTOR) (Homo sapiens, UniProt P42345+Q6PJI9).
T2 construct: endogenous in cells; host or cells: primary CD4+ T cells from PBMCs of healthy donors
The assay is described as follows: Pull-down of biotinylated DOS46L from CD4+ T cells. It is filed as binding. As to conditions: 10 uM, 4 hours. On the procedure:
as §2, §3

In assay [7] the target is T3, Sestrin 2 (Homo sapiens, UniProt P58004).
T3 sequence (P58004 1-480): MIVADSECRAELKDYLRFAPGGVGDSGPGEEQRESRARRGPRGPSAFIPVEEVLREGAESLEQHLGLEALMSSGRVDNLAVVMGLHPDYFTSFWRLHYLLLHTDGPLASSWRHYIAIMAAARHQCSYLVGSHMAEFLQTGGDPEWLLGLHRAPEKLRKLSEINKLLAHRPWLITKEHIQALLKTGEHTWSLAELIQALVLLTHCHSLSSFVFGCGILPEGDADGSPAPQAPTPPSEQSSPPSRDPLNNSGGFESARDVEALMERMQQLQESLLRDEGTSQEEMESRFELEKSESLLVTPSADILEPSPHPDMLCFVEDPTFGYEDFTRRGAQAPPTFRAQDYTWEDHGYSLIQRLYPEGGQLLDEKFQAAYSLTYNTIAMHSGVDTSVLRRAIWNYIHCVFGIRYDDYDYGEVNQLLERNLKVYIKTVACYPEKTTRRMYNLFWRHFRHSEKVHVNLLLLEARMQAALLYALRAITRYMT
The assay is described as follows: Streptavidin pull-down of biotinylated DOS46L with flag recombinant sestrins. Type of assay: binding. As to conditions: streptavidin immunoprecipitation. The protocol: as §2
(§4) The selective interaction was also studied using the cutting-edge […] algorithm for molecular docking predictions based on the deposited sestrin 2 crystal structure.

Assay [8] deals with T4, sestrin 1 (Homo sapiens, UniProt Q9Y6P5).
T4 sequence (Q9Y6P5 1-492): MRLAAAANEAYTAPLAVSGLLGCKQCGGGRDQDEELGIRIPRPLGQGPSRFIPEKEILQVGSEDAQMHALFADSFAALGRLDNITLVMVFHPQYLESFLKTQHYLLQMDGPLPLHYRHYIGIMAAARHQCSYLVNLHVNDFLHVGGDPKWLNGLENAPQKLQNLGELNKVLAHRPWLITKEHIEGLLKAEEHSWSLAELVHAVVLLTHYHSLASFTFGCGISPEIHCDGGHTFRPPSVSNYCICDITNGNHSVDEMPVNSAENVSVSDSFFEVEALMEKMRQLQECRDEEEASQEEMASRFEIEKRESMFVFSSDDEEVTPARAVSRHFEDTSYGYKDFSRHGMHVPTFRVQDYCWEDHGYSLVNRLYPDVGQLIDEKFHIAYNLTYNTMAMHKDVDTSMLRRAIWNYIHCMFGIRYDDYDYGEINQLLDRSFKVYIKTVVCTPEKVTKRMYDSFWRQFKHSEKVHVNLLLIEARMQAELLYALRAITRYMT
The description is as above. Particulars: streptavidin immunoprecipitation. It is filed as binding. On the procedure:
as §2, §4

The target in assay [9] is T5, flag recombinant Sestrin 3 (UniProt P58005 1-492, limits assumed).
T5 construct: also called flagged sestrin 3; not shown: flag tag
T5 sequence (looked up): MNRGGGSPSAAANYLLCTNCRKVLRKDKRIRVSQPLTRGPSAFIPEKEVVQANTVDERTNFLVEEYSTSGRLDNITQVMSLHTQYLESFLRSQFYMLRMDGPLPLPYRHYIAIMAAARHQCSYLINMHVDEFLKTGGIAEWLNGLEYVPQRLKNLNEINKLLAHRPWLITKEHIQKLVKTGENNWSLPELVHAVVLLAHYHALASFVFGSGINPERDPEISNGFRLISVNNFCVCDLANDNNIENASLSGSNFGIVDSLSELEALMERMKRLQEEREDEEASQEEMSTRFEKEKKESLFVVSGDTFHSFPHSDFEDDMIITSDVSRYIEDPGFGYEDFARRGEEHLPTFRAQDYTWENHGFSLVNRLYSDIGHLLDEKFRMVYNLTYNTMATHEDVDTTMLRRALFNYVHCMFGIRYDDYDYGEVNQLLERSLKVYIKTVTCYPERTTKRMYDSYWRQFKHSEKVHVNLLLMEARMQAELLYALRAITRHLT
Put plainly: recombinant sestrins, precipitation and immunoblot (FIG. 8B-C).

T2 sequence (Q6PJI9 whole entry, other chains not shown): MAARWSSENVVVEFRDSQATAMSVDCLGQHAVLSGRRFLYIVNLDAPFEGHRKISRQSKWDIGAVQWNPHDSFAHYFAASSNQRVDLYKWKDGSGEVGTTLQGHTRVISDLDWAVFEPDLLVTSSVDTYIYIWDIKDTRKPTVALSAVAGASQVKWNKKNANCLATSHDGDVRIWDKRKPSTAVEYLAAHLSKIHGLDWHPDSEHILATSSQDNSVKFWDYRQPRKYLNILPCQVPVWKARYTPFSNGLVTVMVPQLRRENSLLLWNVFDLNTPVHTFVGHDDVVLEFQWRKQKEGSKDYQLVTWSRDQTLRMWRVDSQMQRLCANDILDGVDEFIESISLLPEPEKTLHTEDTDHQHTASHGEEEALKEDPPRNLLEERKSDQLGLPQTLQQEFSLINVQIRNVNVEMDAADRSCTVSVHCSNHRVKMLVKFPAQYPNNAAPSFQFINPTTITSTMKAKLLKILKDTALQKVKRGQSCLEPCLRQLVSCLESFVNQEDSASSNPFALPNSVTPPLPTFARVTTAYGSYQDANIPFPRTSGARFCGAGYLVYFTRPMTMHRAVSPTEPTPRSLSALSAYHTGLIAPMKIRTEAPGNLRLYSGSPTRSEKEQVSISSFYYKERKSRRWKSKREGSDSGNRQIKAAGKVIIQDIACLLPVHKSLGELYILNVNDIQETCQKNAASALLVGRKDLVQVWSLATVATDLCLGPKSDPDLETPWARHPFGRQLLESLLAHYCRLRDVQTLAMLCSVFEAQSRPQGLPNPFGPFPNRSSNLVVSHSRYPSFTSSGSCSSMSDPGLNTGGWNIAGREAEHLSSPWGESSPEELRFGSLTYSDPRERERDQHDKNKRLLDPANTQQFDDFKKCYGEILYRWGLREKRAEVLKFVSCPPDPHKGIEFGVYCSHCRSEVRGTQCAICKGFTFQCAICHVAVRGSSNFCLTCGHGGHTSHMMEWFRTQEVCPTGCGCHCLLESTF

Turning to `CC(C)C[C@H]1NC(=O)[C@@H](CC(C)C)NC(=O)[C@@H](Cc2c[nH]c3ccccc23)NC(=O)[C@@H](CCC(=O)O)NC(=O)CNC1=O` [DOS144D], the “effectiveness at sMAC inactivation among all of the DOS compounds tested” value in assay [1] is recorded as “most effective”. Besides, the “sestrins inhibited (pan or selective inhibitor)” value in assay [1] (CD4+ T cells, 4 hours, FIG. 5 heat-map) is “inhibit all three sestrins”. Moreover, in assay [2], the “survival data, comparison of compounds” value was “similar”. In addition, the cancer cell death entry in assay [3] and in assay [4] was “induction of cancer cell death” in each case.
As to “biotinylated DOS46L: biotinylated variant of DOS46L used for pull-down (cyclo(AFIPV); also: biotinylated, site not given here)”, in assay [5], the “association with sMAC in cells” value is “found in the sMAC”. The “association with elements of the GATOR complex in cells” value in assay [6] was “not with elements of the GATOR complex”. Moreover, in [7], the “direct binding to sestrin 2” value is “directly binds”. Also, the “direct binding to sestrin 1” value in assay [8] was “directly binds”.

B1: flag recombinant Sestrin 1 (other, UniProt Q9Y6P5 1-492, looked up)
chain: MRLAAAANEAYTAPLAVSGLLGCKQCGGGRDQDEELGIRIPRPLGQGPSRFIPEKEILQVGSEDAQMHALFADSFAALGRLDNITLVMVFHPQYLESFLKTQHYLLQMDGPLPLHYRHYIGIMAAARHQCSYLVNLHVNDFLHVGGDPKWLNGLENAPQKLQNLGELNKVLAHRPWLITKEHIEGLLKAEEHSWSLAELVHAVVLLTHYHSLASFTFGCGISPEIHCDGGHTFRPPSVSNYCICDITNGNHSVDEMPVNSAENVSVSDSFFEVEALMEKMRQLQECRDEEEASQEEMASRFEIEKRESMFVFSSDDEEVTPARAVSRHFEDTSYGYKDFSRHGMHVPTFRVQDYCWEDHGYSLVNRLYPDVGQLIDEKFHIAYNLTYNTMAMHKDVDTSMLRRAIWNYIHCMFGIRYDDYDYGEINQLLDRSFKVYIKTVVCTPEKVTKRMYDSFWRQFKHSEKVHVNLLLIEARMQAELLYALRAITRYMT
notes: also called flagged sestrin 1; not shown: flag tag
B1: the binding result in assay [9] was “no binding”.

The values above are taken from patent US20250066423A1, “SESTRIN-MAPK COMPLEX INHIBITORS” (Sentcell Ltd, priority 2021, published 2025).
